Values quoted from earlier work, collected in patent publication US10550245B2, “Alternative methods to control crosslinking in high impact polystyrene” (Fina Technology, Inc., priority 2015, dated 2020).
Read-outs that look alike come from different tables or passages of the source.

CC(C)(C)c1cc(CCC(=O)OCC(COC(=O)CCc2cc(C(C)(C)C)c(O)c(C(C)(C)C)c2)(COC(=O)CCc2cc(C(C)(C)C)c(O)c(C(C)(C)C)c2)COC(=O)CCc2cc(C(C)(C)C)c(O)c(C(C)(C)C)c2)cc(C(C)(C)C)c1O [BNX ® 1010, tetrakis[methylene-3(3′,5′-di-tert-butyl-4-hydroxyphenyl)propionate]methane]
Solubility (10 g/100 ml Toluene) (10 g/100 ml Toluene, 25° C.): Clear (25° C.)
Solubility, Acetone (at 25° C., Table 5B): 47%
Solubility, Benzene (at 25° C., Table 5B): 56%
Solubility, Chloroform (at 25° C., Table 5B): 71%
Solubility, Ethanol (at 25° C., Table 5B): 1.5%
Solubility, Ethyl Acetate (at 25° C., Table 5B): 46%
Solubility, Hexane (at 25° C., Table 5B): 0.3%
Solubility, Methanol (at 25° C., Table 5B): 1%
Solubility, Methylene Chloride (at 25° C., Table 5B): 63%
Solubility, Toluene (at 25° C., Table 5B): 60%
Solubility, Water (at 25° C., Table 5B): <0.01% ^

CCCCCCCCSc1nc(Nc2cc(C(C)(C)C)c(O)c(C(C)(C)C)c2)nc(SCCCCCCCC)n1 [BNX ® 565, 2,6-di-tert-butyl-4-(4,6-bis(octylthio)-1,3,5-triazin-2-ylamino)phenol]
Solubility (wt. %), Acetone (Table 2): 20 wt. %
Solubility (wt. %), Benzene (Table 2): 43 wt. %
Solubility (wt. %), Chloroform (Table 2): 39 wt. %
Solubility (wt. %), Ethyl Acetate (Table 2): 46 wt. %
Solubility (wt. %), Hexane (Table 2): 6 wt. %
Solubility (wt. %), Methanol (Table 2): 1.4 wt. %
Solubility (wt. %), Water (Table 2): <0.01 wt. %

CC(C)(C)c1cc(CCC(=O)NCCCCCCNC(=O)CCc2cc(C(C)(C)C)c(O)c(C(C)(C)C)c2)cc(C(C)(C)C)c1O [BNX ® 1098]
Solubility, 80% Caprolactam + 20% water (at 25° C.): 3 g/100 ml solvent
Solubility, 95% Caprolactam + 5% water (at 25° C.): >20 g/100 ml solvent
Solubility, Acetone (at 25° C.): 2 g/100 ml solvent
Solubility, Benzene (at 25° C.): 0.01 g/100 ml solvent
Solubility, Caprolactam (at 25° C.): >20 g/100 ml solvent
Solubility, Chloroform (at 25° C.): 6 g/100 ml solvent
Solubility, Ethyl Acetate (at 25° C.): 1 g/100 ml solvent
Solubility, Hexane (at 25° C.): 0.01 g/100 ml solvent
Solubility, Methanol (at 25° C.): 6 g/100 ml solvent
Solubility, Water (at 25° C.): 0.01 g/100 ml solvent
